This note sets out measurements from patent US20180228780A1, “3-(1H-PYRROLO[2,3-C]PYRIDIN-2-YL)-1H-INDAZOLES AND THERAPEUTIC USES THEREOF” (Samumed, LLC, priority 2015, published 2018).

Structures are written as SMILES.

Holding throughout (type): cell-based
One test relates to IL-6 (THP-1 cells). As to the kind of experiment: IL-6 inhibition in THP-1 monocytes (HTRF). To be noted: Homo sapiens; for EC50: IL-6 inhibition, THP-1 cells, HTRF, 10-point dose-response starting from 10 μM. How it is done: Compound Screening: THP-1 cells were cultured in basal media with 1% FBS for 24 hours before the start of the assay. […] THP-1 cells were plated at 5000 cells/well in the 384-well plates and incubated at 37° C. for 2 h. 500 ng/mL of […] was added after 2 hours and cells were incubated for another 22 hours at 37° C. Plates were spun in a centrifuge for 1 minute at 10,000 rpm and a mixture of anti-IL6 XL665, and anti-IL6 Cryptate diluted in reconstitution buffer (Cisbio Inc.) was added to each well. Following incubation for 3 hrs at room temperature, Homogeneous Time-Resolved Fluorescence (HTRF) was measured using the Envision (Perkin Elmer) at 665 nm and […]. The ratio of fluorescence at 665 nm to 620 nm was used as a readout for IL6 quantification. All samples were processed in duplicate. Readings were normalized to DMSO treated cells and normalized activities were utilized for EC50 calculations using the dose-response log (inhibitor) vs. response-variable slope (four parameters) nonlinear regression feature available in GraphPad Prism 5.0 (or Dotmatics).

The test system of the next test is SW480 colon cancer cells. As to the kind of experiment: Cell viability assay (CellTiter-Blue) in SW480 colon cancer cells. Conditions: Homo sapiens, 96 h; SW480 cell viability, four days incubation. The method, then:
Representative compounds were screened using the following assay procedure to assess the effect on cell viability as described below.
Approximately 2×10^3 SW480 colon cancer cells were seeded into each well and allowed to incubate in the presence or absence of compound for four days at 37° C./5% CO2. Eight replicates of DMSO-treated cells served as controls and cells treated with compound were performed in duplicate.
After incubation, 20 μL of CellTiter-Blue (Promega) was added to each well allowed to incubate for approximately 3 hours. This reagent was a buffered solution which contains resazurin, metabolically active cells were able to reduce rezarurin (blue) into resorufin (pink) which was highly fluorescent. This measured fluorescence was used as a readout for cell viability.

In test [1] the test system is Wnt activity (Sp5-Luc reporter, SW480 colon carcinoma cells). Description: Screening assay for Wnt activity: Sp5-Luc reporter gene assay in SW480 cells. Conditions: Homo sapiens; SW480 Sp5-Luc reporter, overnight incubation. The source says: The screening assay for Wnt activity is described as follows. Reporter cell lines can be generated by stably transducing cancer cell lines (e.g., colon cancer) or primary cells (e.g., IEC-6 intestinal cells) with a lentiviral construct that includes a Wnt-responsive promoter driving expression of the firefly luciferase gene.
SW480 colon carcinoma cells were transduced with a lentiviral vector expressing luciferase with a human Sp5 promoter consisting of a sequence of eight TCF/LEF binding sites. SW480 cells stably expressing the Sp5-Luc reporter gene and a hygromycin resistance gene were selected by treatment with 150 μg/mL of hygromycin for 7 days. These stably transduced SW480 cells were expanded in cell culture and used for all further screening activities. […] For Sp5-Luc reporter gene assays, the cells were plated at 4,000 cells/well in 384-well plates with medium containing 1% fetal bovine serum and incubated overnight at 37° C. and 5% CO2. Following incubation, 20 μl of BrightGlo luminescence reagent (Promega) was added to each well of the 384-well assay plates. The plates were placed on an orbital shaker for 2 min and then luminescence was quantified using the Envision (Perkin Elmer) plate reader. Readings were normalized to DMSO only treated cells, and normalized activities were utilized for EC50 calculations using the dose-response log (inhibitor) vs. response-variable slope (four parameters) nonlinear regression feature available in GraphPad Prism 5.0 (or Dotmatics).

The test system of test [2] is Primary human fibroblasts derived from IPF patients (LL29 cells). Description: Inhibition of the fibrotic process: αSMA staining in TGF-β1-treated LL29 fibroblasts. Conditions: Fibroblast, 96 h, LL29 cells, TGF-β1 20 ng/mL, 4 days, % αSMA-positive cells. An excerpt: Representative compounds were screened using primary human fibroblasts (derived from IFF patients) treated with TGF-β1 to determine their ability to inhibit the fibrotic process.
K. L., et.al., “RhoA signaling modulates cyclin D1 expression in human lung fibroblasts; implications for idiopathic pulmonary fibrosis”, Respiratory Research (2006), 7(1), 88] were obtained from American Type Culture Collection (ATCC) and expanded in F12 medium supplemented with 15% Fetal Bovine Serum and Penicillin/Streptomycin.
LL29 cells are plated at 1,500 cells/well in 80 μL/well F12 medium supplemented with 1% Fetal Bovine Serum. […] Wells treated with TGF-β1 and containing DMSO were used as controls. […] Following incubation for 4 days, SYTOX green nucleic acid stain (Life Technologies [Thermo Fisher Scientific]) was added to the wells at a final concentration of 1 μM and incubated at room temperature for 30 min.

`Fc1cccc(-c2cncc3[nH]c(-c4n[nH]c5ccc(-c6cccnc6)cc45)cc23)c1` [Compound 4, 3-(4-(3-Fluorophenyl)-1H-pyrrolo[2,3-c]pyridin-2-yl)-5-(pyridin-3-yl)-1H-indazole]: the EC50 is 783 nM in the test on IL-6 (THP-1 cells), 1380 nM in the test on SW480 colon cancer cells, 395 nM in test [1] and 1630 nM in test [2].
For `CCCC(=O)Nc1cncc(-c2ccc3[nH]nc(-c4cc5c(-c6cccc(F)c6)cncc5[nH]4)c3c2)c1` [Compound 17, N-(5-(3-(4-(3-Fluorophenyl)-1H-pyrrolo[2,3-c]pyridin-2-yl)-1H-indazol-5-yl)pyridin-3-yl)butyramide], in that order: 87 nM, 282 nM, 200 nM and 254 nM.
Take `Fc1cccc(-c2cncc3[nH]c(-c4n[nH]c5ccc(-c6ccncc6)cc45)cc23)c1` [Compound 18, 3-(4-(3-Fluorophenyl)-1H-pyrrolo[2,3-c]pyridin-2-yl)-5-(pyridin-4-yl)-1H-indazole]: the inhibition at 10 µM in the test with IL-6 (THP-1 cells) (THP-1, read-out: percentage in parentheses printed under EC50 >10) was 54.3%. Moreover, the EC50 in the test on IL-6 (THP-1 cells) was > 10000 nM; in the test with SW480 colon cancer cells, 988 nM; in test [1], 2110 nM; in test [2], 973 nM.
As for `O=C(Nc1cncc(-c2ccc3[nH]nc(-c4cc5c(-c6cccc(F)c6)cncc5[nH]4)c3c2)c1)C1CCCCC1` [Compound 23, N-(5-(3-(4-(3-Fluorophenyl)-1H-pyrrolo[2,3-c]pyridin-2-yl)-1H-indazol-5-yl)pyridin-3-yl)cyclohexanecarboxamide], the EC50 was found to be 108 nM in the test with IL-6 (THP-1 cells), 513 nM in the test with SW480 colon cancer cells, 620 nM in test [1] and 193 nM in test [2].
For the compound `CC(C)(C)C(=O)Nc1cncc(-c2ccc3[nH]nc(-c4cc5c(-c6ccc(F)cc6)cncc5[nH]4)c3c2)c1` [Compound 36, N-(5-(3-(4-(4-Fluorophenyl)-1H-pyrrolo[2,3-c]pyridin-2-yl)-1H-indazol-5-yl)pyridin-3-yl)pivalamide], the half-maximal effective concentration (EC50) was determined as 6910 nM with IL-6 (THP-1 cells), 702 nM in the test with SW480 colon cancer cells, 680 nM in test [1] and 1090 nM in test [2].
For the compound `CN(C)Cc1cncc(-c2ccc3[nH]nc(-c4cc5c(-c6ccc(F)cc6)cncc5[nH]4)c3c2)c1` [Compound 41, 1-(5-(3-(4-(4-Fluorophenyl)-1H-pyrrolo[2,3-c]pyridin-2-yl)-1H-indazol-5-yl)pyridin-3-yl)-N,N-dimethylmethanamine], the EC50 was determined as 7050 nM in the test on IL-6 (THP-1 cells), 1170 nM in the test on SW480 colon cancer cells, 3080 nM in test [1] and 1190 nM in test [2].
With `CCCC(=O)Nc1cncc(-c2ccc3[nH]nc(-c4cc5c(-c6ccc(F)cc6)cncc5[nH]4)c3c2)c1` [Compound 45, N-(5-(3-(4-(4-Fluorophenyl)-1H-pyrrolo[2,3-c]pyridin-2-yl)-1H-indazol-5-yl)pyridin-3-yl)butyramide], the concentration for a half-maximal effect (EC50) in the test with IL-6 (THP-1 cells) was 349 nM; in the test on SW480 colon cancer cells, 1010 nM; in test [1], 1510 nM; in test [2] it was 290 nM.
Regarding `O=C(Nc1cncc(-c2ccc3[nH]nc(-c4cc5c(-c6ccc(F)cc6)cncc5[nH]4)c3c2)c1)C1CCC1` [Compound 49, N-(5-(3-(4-(4-Fluorophenyl)-1H-pyrrolo[2,3-c]pyridin-2-yl)-1H-indazol-5-yl)pyridin-3-yl)cyclobutanecarboxamide], the half-maximal effective concentration (EC50) worked out at 171 nM with IL-6 (THP-1 cells), 302 nM in the test on SW480 colon cancer cells, 240 nM in test [1] and 135 nM in test [2].
As for `CC(C)C(=O)Nc1cncc(-c2ccc3[nH]nc(-c4cc5c(-c6ccccc6F)cncc5[nH]4)c3c2)c1` [Compound 65, N-(5-(3-(4-(2-Fluorophenyl)-1H-pyrrolo[2,3-c]pyridin-2-yl)-1H-indazol-5-yl)pyridin-3-yl)isobutyramide], the EC50 in the test with IL-6 (THP-1 cells) amounted to 263 nM; with SW480 colon cancer cells it was 812 nM; in test [1], 626 nM; in test [2], 1250 nM.
